Structures can show the parent of a compound that is named as a salt.

The values that follow come from patent US20050124626A1, “Novel compounds” (priority 2002, published 2005).

In the assay the target is T1, human cloned 5-HT6 receptors (Homo sapiens, UniProt P50406).
T1 construct: expressed in transfected cells
T1 sequence (P50406 whole entry): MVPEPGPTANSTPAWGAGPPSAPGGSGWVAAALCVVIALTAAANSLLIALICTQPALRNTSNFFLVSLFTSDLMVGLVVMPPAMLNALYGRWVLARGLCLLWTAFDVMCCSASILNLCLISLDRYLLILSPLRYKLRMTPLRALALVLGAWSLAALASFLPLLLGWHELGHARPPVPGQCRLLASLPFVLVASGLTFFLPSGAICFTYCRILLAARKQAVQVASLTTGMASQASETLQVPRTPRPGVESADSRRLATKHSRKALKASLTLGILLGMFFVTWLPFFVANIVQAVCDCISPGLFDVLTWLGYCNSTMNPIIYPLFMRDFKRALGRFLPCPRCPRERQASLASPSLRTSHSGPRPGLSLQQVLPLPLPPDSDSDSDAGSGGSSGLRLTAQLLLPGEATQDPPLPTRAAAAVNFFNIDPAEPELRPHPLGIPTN
Put plainly: 5-HT6 receptor affinity following the procedures outlined in WO98/27081. The format is binding. The following applies: read-out: pKi values at human cloned 5-HT6 receptors (converted). From the text:
Compounds can be tested following the procedures outlined in WO98/27081.
In the case of `O=S(=O)(c1ccccc1)c1ccnc2c(N3CCNCC3)cccc12` [Example E10, 4-Phenylsulfonyl-8-piperazin-1-yl quinoline], the Ki is below 0.01 µM. Turning to `Cc1cc(S(=O)(=O)c2ccccc2)c2cccc(N3CCNCC3)c2n1` [Example E12, 2-Methyl-4-phenylsulfonyl-8-piperazin-1-yl-quinoline], the Ki was below 0.01 µM. On to `O=S(=O)(c1cccc(F)c1)c1c[nH]c2c(N3CCNCC3)nccc12` [Example E8, 3-(3-Fluorophenyl)sulfonyl-7-piperazin-1-yl-1H-pyrrolo[2,3-c]pyridine hydrochloride], for which the Ki was below 0.0316 µM. On to `O=S(=O)(c1ccccc1F)c1c[nH]c2c(N3CCNCC3)nccc12` [Example E7, 3-(2-Fluorophenyl)sulfonyl-7-piperazin-1-yl-1H-pyrrolo[2,3-c]pyridine hydrochloride], for which the Ki is below 0.0316 µM. Turning to `O=S(=O)(c1ccccc1)c1c[nH]c2c(N3CCNCC3)nccc12` [Example E6, 7-piperazin-1-yl-3-phenylsulfonyl-1H-pyrrolo[2,3-c]pyridine hydrochloride], the Ki is below 0.0316 µM. On to `O=S(=O)(c1ccccc1)c1ccnc2c(N3CCNCC3)cccc12` [Example E11, 4-Phenylsulfonyl-8-piperazin-1-yl-quinoline hydrochloride], for which the Ki is below 0.01 µM.

With `Cc1cc(S(=O)(=O)c2ccccc2F)c2cccc(N3CCNCC3)c2n1` [Example E14], the Ki was below 0.01 µM. On to `Cc1cc(S(=O)(=O)c2cccc(Cl)c2)c2cccc(N3CCNCC3)c2n1` [Example E16], for which the Ki was below 0.01 µM. For the compound `Cc1cc(S(=O)(=O)c2cccc(F)c2)c2cccc(N3CCNCC3)c2n1` [Example E15], the Ki is below 0.01 µM. With `Cc1cc(S(=O)(=O)c2ccccc2)c2cccc(N3CCNCC3)c2n1` [Example E13, 2-Methyl-4-phenylsulfonyl-8-piperazin-1-ylquinoline hydrochloride], the Ki is below 0.01 µM. For `Cc1cc(N2CCNCC2)c2ccc(S(=O)(=O)c3ccccc3)cc2n1` [Example E9, 2-Methyl-4-piperazin-1-yl-7-phenylsulfonylquinoline hydrochloride], the Ki was below 0.01 µM.
